Assay results: ChEMBL document CHEMBL2440079, “Synthesis and in vitro evaluation of a novel radioligand for αvβ3 integrin receptor imaging: [18F]FPPA-c(RGDfK)” (Bioorg Med Chem Lett, 2013)
Activity calls are given as the source filed them. The rule behind the calls is not given here.

Legend:
Integrin alpha-V/beta-3 [1] = molecular target: T1, Integrin alpha-V/beta-3 (Homo sapiens, UniProt P05106+P06756); assay: Activation of alphaVbeta3 integrin in HUVEC at 10 uM by flow cytometry; type: protein-complex assay
HEK-293T = assay: Selectivity ratio of IC50 for soluble truncated human recombinant 6His-tagged alpha5beta1 and integrins were expressed in HEK293T cells to IC50 for soluble truncated human recombinant Fc-tagged alphaVbeta3 and integrins; type: cell-based
Integrin alpha-5/beta-1 = Integrin alpha-5/beta-1 (Homo sapiens, UniProt P05556+P08648); assay: Binding affinity to soluble truncated human recombinant 6His-tagged alpha5beta1 and integrins were expressed in HEK293T cells after 2 hrs by competition ELISA-like assay; type: cell-based, HEK-293T
Integrin alpha-V/beta-3 [2] = molecular target: T1, Integrin alpha-V/beta-3; assay: Binding affinity to soluble truncated human recombinant Fc-tagged alphaVbeta3 and integrins were expressed in HEK293T cells after 2 hrs by competition ELISA-like assay; type: cell-based, HEK-293T

Row | Activity (Integrin alpha-V/beta-3 [1]) | IC50 (Integrin alpha-5/beta-1) [µM] | IC50 (Integrin alpha-V/beta-3 [2]) [µM] | Structure (SMILES) | Ratio IC50 (HEK-293T)
1 | Active |  |  | N=C(N)NCCC[C@@H]1NC(=O)[C@H](CCCCn2cc(CCC(=O)Nc3ccc(F)cc3)nn2)NC(=O)[C@@H](Cc2ccccc2)NC(=O)[C@H](CC(=O)O)NC(=O)CNC1=O | 300
2 |  | 3.65 | 0.0106 | NC(N)=NCCC[C@@H]1NC(=O)[C@H](CCCCn2cc(CCC(=O)Nc3ccc(F)cc3)nn2)NC(=O)[C@@H](Cc2ccccc2)NC(=O)[C@H](CC(=O)O)NC(=O)CNC1=O | 
